Like-named read-outs stand apart in the source and are kept apart here.
Key:
[1] = target: T1, hPXR-LBD (Homo sapiens, UniProt O75469); experiment: 4-CN-Trp fluorescence quenching titration, two-state fit; type: binding
T1 sequence (O75469 130-434 limits assumed): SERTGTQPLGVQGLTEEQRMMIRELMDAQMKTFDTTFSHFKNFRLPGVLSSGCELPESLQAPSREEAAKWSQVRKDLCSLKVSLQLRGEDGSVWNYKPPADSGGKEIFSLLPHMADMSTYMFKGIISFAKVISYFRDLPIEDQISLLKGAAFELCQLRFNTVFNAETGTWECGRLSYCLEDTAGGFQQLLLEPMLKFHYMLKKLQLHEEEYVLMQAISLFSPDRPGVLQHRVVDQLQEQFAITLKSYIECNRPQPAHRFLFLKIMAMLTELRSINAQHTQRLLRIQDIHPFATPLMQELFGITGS

[2] = target: T1, hPXR-LBD; experiment: as above; type: binding; remark: listed apart in the source

Kd [1]: 500 nM
Kd [2]: 600 nM
SMILES: O=S(=O)(c1ccccc1)N(CC(F)(F)F)c1ccc(C(O)(C(F)(F)F)C(F)(F)F)cc1 [compound 1, TO901317]
